≈ marks a conversion by molar mass, not a printed value. Where “and” joins values, the source holds several entries; their conditions need not be identical. Equal values may be shown once. Read-outs that look alike come from different tables or passages of the source.
What was measured:
LYSA solubility study = format: physicochemical; conditions: for solubility thermodynamic: phosphate buffer, pH 6.5, aqueous buffer, thermodynamic from solid; for LYSA of Active Forms: aqueous solubility, 0.05M phosphate buffer pH 6.5
Method: LYSA study is used to determine the aqueous solubility of tested compounds. Samples were prepared in duplicate from 10 mM DMSO stock solution. After evaporation of DMSO with a centrifugal vacuum evaporator, the compounds were dissolved in 0.05M phosphate buffer (pH 6.5), stirred for one hour and shaken for two hours. After one night, the solutions were filtered using a microtiter filter plate. Then the filtrate and its 1/10 dilution were analyzed by HPLC-UV. […] The results were in μg/mL. In case the percentage of sample measured in solution after evaporation divided by the calculated maximum of sample amount was bigger than 80%, the solubility was reported as bigger than this value.

human TLR7 = target: T1, human TLR7 (Homo sapiens, UniProt Q9NYK1); assay: HEK293-Blue-hTLR-7 cells assay (SEAP reporter); format: cell-based; conditions: for EC50: HEK293-Blue-hTLR-7 cells, SEAP reporter, 20 hrs; for Ratio (EC50(prodrug)/EC50(active form)): EC50 of prodrug over EC50 of corresponding active form
T1 sequence (Q9NYK1 27-1049): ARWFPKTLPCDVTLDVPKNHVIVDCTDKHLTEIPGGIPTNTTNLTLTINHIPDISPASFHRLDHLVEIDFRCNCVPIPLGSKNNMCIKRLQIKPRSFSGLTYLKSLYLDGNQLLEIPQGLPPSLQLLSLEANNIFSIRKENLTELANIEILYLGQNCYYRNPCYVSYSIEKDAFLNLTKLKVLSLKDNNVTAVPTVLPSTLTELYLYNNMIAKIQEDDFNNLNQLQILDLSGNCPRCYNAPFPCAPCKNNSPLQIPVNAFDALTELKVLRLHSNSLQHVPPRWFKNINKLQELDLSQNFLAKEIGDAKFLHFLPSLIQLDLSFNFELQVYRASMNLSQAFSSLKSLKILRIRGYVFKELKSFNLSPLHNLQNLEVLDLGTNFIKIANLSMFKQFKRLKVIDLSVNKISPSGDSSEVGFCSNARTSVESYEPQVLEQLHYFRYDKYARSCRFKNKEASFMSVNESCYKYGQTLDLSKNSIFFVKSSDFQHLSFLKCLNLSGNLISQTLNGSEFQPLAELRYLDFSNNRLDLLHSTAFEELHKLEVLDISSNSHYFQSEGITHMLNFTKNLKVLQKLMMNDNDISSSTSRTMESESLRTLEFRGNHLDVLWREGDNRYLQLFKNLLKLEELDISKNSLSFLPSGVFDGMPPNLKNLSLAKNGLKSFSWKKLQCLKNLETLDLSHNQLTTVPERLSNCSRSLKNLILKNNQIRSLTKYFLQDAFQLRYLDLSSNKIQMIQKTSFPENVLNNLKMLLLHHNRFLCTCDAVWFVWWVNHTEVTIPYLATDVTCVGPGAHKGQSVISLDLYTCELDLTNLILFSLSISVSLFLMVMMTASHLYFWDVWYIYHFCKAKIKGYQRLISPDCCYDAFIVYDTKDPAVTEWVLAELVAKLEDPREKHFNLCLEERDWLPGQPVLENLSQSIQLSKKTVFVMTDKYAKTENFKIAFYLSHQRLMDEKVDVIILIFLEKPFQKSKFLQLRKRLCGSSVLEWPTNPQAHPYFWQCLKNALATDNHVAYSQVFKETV
Summary of the method: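 HEK293-Blue-hTLR7 cells with NF-κB/AP-1-driven SEAP reporter exposed to serially diluted compound (1% DMSO) for 20 hrs at 37° C. Supernatant SEAP measured with QUANTI-Blue after 2 hrs at 37° C, absorbance 620~655 nm; agonism expressed as EC50.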

[1] = Single dose PK study in male Wister-Han rats; format: in vivo; conditions: 5 mg/kg oral dosing of active form; for concentration at 7 h: 7 hrs (footnote), read-out: Mean plasma concentration (nM), 7 hrs (row 8*)
Method: The single dose PK in Male Wister-Han Rats was performed to assess pharmacokinetic properties of tested compounds. Two groups of animals were dosed via Gavage (POE) of the respective compound. […] Blood samples were placed into tubes containing EDTA-K2 anticoagulant and centrifuged at 5000 rpm for 6 min at 4° C. to separate plasma from the samples. After centrifugation, the resulting plasma was transferred to clean tubes for bioanalysis of both prodrug and active form on LC/MS/MS. In the groups that prodrug were dosed, the concentration of prodrugs in the plasma samples was under the detection limit. The “tested compound” in Table 8 was used as the internal standard for testing the metabolite (active form) of “dose compound” in vivo. The pharmacokinetic parameters were calculated using non-compartmental module of WinNonlin® Professional 6.2. The peak concentration (Cmax) was recorded directly from experimental observations. The area under the plasma concentration-time curve (AUC0-t) was calculated using the linear trapezoidal rule up to the last detectable concentration. Cmax and AUC0-last are two critical PK parameters related to the in vivo efficacy of the tested compound. Compounds with higher Cmax and AUC0-last will lead to the better in vivo efficacy.

[2] = 0.05M phosphate buffer pH 6.5, read-out: LYSA of Active Forms
[3] = active form, read-out: HEK293-hTLR-7 EC50 (Active form)
[4] = male, Wister-Han, rat, plasma, po, 5 mg/kg
[5] = 0.05M phosphate buffer pH 6.5, read-out: LYSA of Prodrugs
[6] = prodrug, read-out: HEK293-hTLR-7 EC50 (Prodrug)

Row | solubility thermodynamic (LYSA solubility study; [2]) [µg/mL] | EC50 (human TLR7; [3]) | AUC(0-t) [1, 4] [µM·h] | Cmax [1, 4] [nM] | concentration at 0.25 h [1, 4] [nM] | concentration at 0.5 h [1, 4] [nM] | concentration at 1 h [1, 4] [nM] | concentration at 2 h [1, 4] [nM] | concentration at 4 h [1, 4] [nM] | concentration at 7 h [1, 4] [nM] | solubility thermodynamic (LYSA solubility study; [5]) [µg/mL] | Ratio (EC50(prodrug)/EC50(active form)) (human TLR7) | EC50 (human TLR7; [6]) [nM] | Structure (SMILES) | also measured
1 | 1 (≈ 2.73 µM) | 71 nM | 0.242 | 32.3 | 16.8 | 27.5 | 32.3 | 27.3 | 27.4 | 18 | – | – | – | CC[S@](=N)(=O)c1nc(N)c2[nH]c(=O)n(Cc3ccc(Cl)cc3)c2n1 (single isomer, unassigned) [Compound 41c-A] | concentration at 24 h [1, 4]: 5.6 nM
2 | 5 (≈ 13.6 µM) | 85 nM | 0.0558 | 5.46 | 3.41 | 0.75 | 2.04 | 5.46 | 2.52 | 1.21 | – | – | – | CC[S@@](=N)(=O)c1nc(N)c2[nH]c(=O)n(Cc3ccc(Cl)cc3)c2n1 (single isomer, unassigned) [Compound 41c-B] | –
3 | 13 (≈ 37.5 µM) | 110 nM | 0.077 | 15.2 | 12.6 | 15.2 | 13 | 12 | 8.2 | 6.31 | – | – | – | CC[S@@](=N)(=O)c1nc(N)c2[nH]c(=O)n(Cc3ccc(C)cc3)c2n1 (single isomer, unassigned) [Compound 43e-A] | –
4 | – | 390 nM and 260 nM | 0.767 | 80 | 64.6 | 80 | 58.1 | 42.5 | 77.8 | – | – | – | – | CCS(=N)(=O)c1nc(N)c2[nH]c(=O)n(Cc3ccc(F)cc3)c2n1 (single isomer, unassigned) [Compound 45e-A] | LYSA of Active Forms (LYSA solubility study): 90 µg/mL; concentration at 8 h [1, 4]: 34.6 nM; concentration at 24 h [1, 4]: 8.6 nM
5 | – | 260 nM and 390 nM | – | – | – | – | – | – | – | – | – | – | – | CCS(=N)(=O)c1nc(N)c2[nH]c(=O)n(Cc3ccc(F)cc3)c2n1 (single isomer, unassigned) [Compound 45e-B] | LYSA of Active Forms (LYSA solubility study): 115 µg/mL; AUC0-last [1]: 0.568 µM·h; Cmax [1]: 53.9 nM; concentration at 0.25 h ([1]; read-out: Mean plasma concentration (nM), 0.25 h): 42.8 nM; concentration at 0.5 h ([1]; read-out: Mean plasma concentration (nM), 0.5 h): 52.2 nM; concentration at 1 h ([1]; read-out: Mean plasma concentration (nM), 1 h): 37.6 nM; concentration at 2 h ([1]; read-out: Mean plasma concentration (nM), 2 h): 24.2 nM; concentration at 4 h ([1]; read-out: Mean plasma concentration (nM), 4 h): 53.9 nM; concentration at 8 h ([1]; read-out: Mean plasma concentration (nM), 8 h): 29 nM; concentration at 24 h ([1]; read-out: Mean plasma concentration (nM), 24 h): 5.7 nM
6 | – | – | – | – | – | – | – | – | – | – | 695 (≈ 1300 µM) | 106.2 | 6900 | CCCS(=N)(=O)c1nc(N)c2c(n1)n(Cc1ccccc1)c(=O)n2C(=O)N(C)CCN(C)C(=O)OCC (centres unmarked) [Example 28, Ethyl N-[2-[[6-amino-9-benzyl-8-oxo-2-(propylsulfonimidoyl)purine-7-carbonyl]-methyl-amino]ethyl]-N-methyl-carbamate] | –
7 | – | – | – | – | – | – | – | – | – | – | 395 (≈ 705 µM) | 750.8 | 48800 | CCCCN(C)C(=O)OCCN(C)C(=O)n1c(=O)n(Cc2ccccc2)c2nc(S(=N)(=O)CCC)nc(N)c21 (centres unmarked) [Example 29, 2-[[6-Amino-9-benzyl-8-oxo-2-(propylsulfonimidoyl)purine-7-carbonyl]-methyl-amino]ethyl N-butyl-N-methyl-carbamate] | –
8 | – | – | – | – | – | – | – | – | – | – | 125 (≈ 229 µM) | 346.2 | 22500 | CCCS(=N)(=O)c1nc(N)c2c(n1)n(Cc1ccccc1)c(=O)n2C(=O)N(C)CCOC(=O)N(CC)CC (centres unmarked) [Example 32, 2-[[6-Amino-9-benzyl-8-oxo-2-(propylsulfonimidoyl)purine-7-carbonyl]-methyl-amino]ethyl N,N-diethylcarbamate] | –
9 | – | – | – | – | – | – | – | – | – | – | 168 (≈ 366 µM) | 1673.7 | 31800 | CCCN(C)C(=O)n1c(=O)n(Cc2ccc(C)cc2)c2nc([S@@](=N)(=O)CCC)nc(N)c21 [Example 36-A, 6-Amino-N-methyl-8-oxo-N-propyl-2[S(S)-propylsulfonimidoyl]-9-(p-tolylmethyl)purine-7-carboxamide] | –
